The record followed here is patent EP4810493A1, “HETEROCYCLIC CARBONYL DERIVATIVE MODULATOR, PREPARATION METHOD THEREFOR, AND USE THEREOF” (Shanghai Hansoh Biomedical Co., Ltd., priority 2023, dated 2025).

As usually defined, the EC50 is the concentration at which the effect is half-maximal. A word on the AUC(0-inf): it is total exposure, with the tail of the curve extrapolated. For orientation: Cmax means the maximum level reached in the sampled fluid or tissue. Usually Tmax stands for the time from dosing to the highest level.

Read-outs that look alike come from different tables or passages of the source.

Data set [1] deals with T1, M4 receptor (Homo sapiens, UniProt P08173).
T1 construct: expressed in transfected cells
T1 sequence (P08173 1-479): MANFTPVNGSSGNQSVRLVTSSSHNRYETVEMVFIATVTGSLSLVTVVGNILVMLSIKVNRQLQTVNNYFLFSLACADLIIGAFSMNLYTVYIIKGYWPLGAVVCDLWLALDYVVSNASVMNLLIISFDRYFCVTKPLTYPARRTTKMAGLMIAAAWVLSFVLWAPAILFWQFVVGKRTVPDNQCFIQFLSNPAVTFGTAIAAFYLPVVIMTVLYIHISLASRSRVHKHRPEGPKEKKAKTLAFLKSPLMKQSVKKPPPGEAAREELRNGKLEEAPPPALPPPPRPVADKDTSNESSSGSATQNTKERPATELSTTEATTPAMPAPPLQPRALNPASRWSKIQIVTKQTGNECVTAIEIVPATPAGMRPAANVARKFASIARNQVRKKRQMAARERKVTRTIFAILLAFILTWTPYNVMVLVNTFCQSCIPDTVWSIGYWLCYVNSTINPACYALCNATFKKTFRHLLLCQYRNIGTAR
Kind of data set: Calcium flux (FLIPR) potentiation assay in cells stably expressing M4 receptor. It counts as cell-based. An excerpt:
Test example 1. Determination of the effect of the compounds of the present invention on calcium current in cells stably expressing M1-M5 receptors
To detect the potentiating effect of compounds on calcium flux activity in CHO-K1/human M1/3/5 and CHO-K1/Gα15 M2/4 cells.
384-well assay plate, 384-well plate, FLIPR Tip, FLIPR Penta plate reader, Dispendix non-contact nanoliter dispensing system (liquid handling workstation), liquid handler.
Ham's F-12 Nutrient Mix, foetal bovine serum, P/S (Gibco: 15140122), HBSS (Gibco: 14025076), HEPES (Gibco: 15630080), FLIPR calcium 6 assay kit (Molecular Devices: R8190), Probenecid (PBA) (Invitrogen: P36400), Acetylcholine chloride (Sigma: A6625-25G) Complete culture medium: DMEM + 10% FBS + 1X P/S; Cell seeding medium: DMEM + 10% FBS + 1X PS; Assay buffer 1: 1X HBSS + 20 mM HEPES +2.5 mM Probenecid; Assay buffer 2: 1X HBSS + 20 mM HEPES; Cell line: CHO-K1/M1; CHO-K1/M2/Gα15; CHO-K1/M3; CHO-K1/M4/Gα15; CHO-K1/M5.
FLIPR calcium 6 assay kit: Component A was dissolved in Assay buffer 1, and the mixture was shaken for 1-2 min, sub-packaged and stored at -20°C.
• 1) CHO-K1/M1; CHO-K1/M2/Gα15; CHO-K1/M3; CHO-K1/M4/Gα15; and CHO-K1/M5 cell lines were cultured separately in complete culture medium at 37°C, 5% CO2 to 70%-90% confluency. • 2) The cells were digested and resuspended in cell seeding medium, 5,000 cells/well/20 µL were seeded into a 384-well cell culture plate, and the cells were cultured at 37°C, 5% CO2 for 24 hours. • 3) The cell culture plate was taken out of the CO2 incubator and equilibrated at room temperature for 10 minutes. • 4) Component A solution was removed and allowed to equilibrate to room temperature. 20 µL of Component A solution was added to each well of the cell culture plate, and incubated at room temperature in the dark for 1 hour. • 5) Acetylcholine chloride (ACh), a muscarinic receptor agonist, was prepared in Assay buffer 2 at EC20/EC100 concentrations; subsequently, 30 µL of the prepared muscarinic receptor agonist was added to a 384-well agonist plate (PE: 6008590) using a Multidrop Combi; the working solutions of the positive control compound and the test compound were serially diluted at a 3.16-fold gradient and dispensed (450 nL) into a 384-well compound plate (PE: 6008590) using the Dispendix liquid handling workstation; 30 µL of Assay buffer 2 was added to the 384-well compound plate (PE: 6008590) using the Multidrop Combi; the positive control compound and the test compound were diluted to 6X, mixed by shaking, and placed at room temperature until use. • 6) 10 µL of the diluted 6X compound was added to the assay wells of the corresponding 384-well cell plate using the FLIPR Penta, followed by a 2-minute incubation. • 7) 10 µL of the prepared muscarinic receptor agonist was added to the assay wells of the corresponding 384-well cell plate using the FLIPR Penta, with simultaneous data acquisition.
FLIPR Penta was used to read and collect the fluorescence signal value (RFU). The maximum RFU value was used to calculate the percent activation data based on the readings of the Low control (DMSO control group) and High control (ACh EC100) experimental groups {% activation rate = (RFUsample - RFUlow control) / (RFUhigh control - RFUlow control)×100}. The test compound was diluted 3.16X in the reaction system to generate 11 concentration points ranging from 30 µM to […].
Background: Calcium flux is commonly read through the fluorescence of an indicator in the cells.

Data set [2] in a line: Pharmacokinetic determination in SD rats. To be noted: rat, in vivo, po, male SD rats, p.o. 5 mg/kg; for MRT inf: read-out: MRT 0-∞. As to the method:
To investigate the pharmacokinetic behaviours of the example compounds in both plasma and brain of SD rats (test animals) following oral administration at a dose of 5 mg/kg.
2.1 Test drugs: The example compounds of the present invention, made in house.
2.2 Test animals: SD Rat, male.
24 SD Rats, male; p.o. respectively at a dose of 5 mg/kg and an administration volume of 10 mL/kg after the rats were fasted overnight.
Formulation of a drug for oral administration: 0.5% CMC-Na (1% Tween 80).
0.50 g of sodium carboxymethyl cellulose (CMC-Na, viscosity: 800-1200 Cps) was weighed and dissolved in 99 mL of purified water, and 1 ml of Tween 80 was added. The components were mixed thoroughly under stirring to form a clear solution.
The example compound was weighed into a 100 mL glass vial, 80 mL of the solution was added, and the mixture was subjected to ultrasound treatment for 10 minutes to obtain a homogeneous suspension with a concentration of 0.5 mg/mL.
After the test animals were euthanised by CO2, blood samples were collected from the heart and brain tissues were harvested at 0.25 h, 0.5 h, 1 h, 2 h, 4 h, 6 h, 8 h, and 24 h post-dose. Blood was placed in EDTA-2K tubes, and centrifuged at 6000 rpm for 6 min at 4°C to separate the plasma. Brain tissues were rinsed with pre-cold PBS, blotted dry, and weighed. Both plasma and brain samples were stored at -80°C. The animals were fed 4 h after administration.
• 3) 40 uL of plasma sample was precipitated with 160 uL of acetonitrile, mixed, and centrifuged at 3500 × g for 5-20 min. Brain tissues were diluted, homogenised and centrifuged. • 4) 100 uL of the treated supernatant solution was taken for LC/MS/MS analysis to determine the concentration of the test compounds.
• Liquid phase conditions: Shimadzu LC-20AD pump • Mass spectrometry conditions: AB Sciex API 4000 mass spectrometer • Chromatographic column: Phenomenex Gemiu 5 um C18 50 × 4.6 mm • Mobile phase: solution A: 0.1% formic acid in water, solution B: acetonitrile • Flow rate: 0.8 mL/min • Elution time: 0-4.0 min, with eluents as follows:
The main pharmacokinetic parameters were calculated using WinNonlin 8.1.

[3] abbreviates: CHO-K1/M4/Gα15 cells, potentiation of acetylcholine (EC20) calcium flux, read-out: M4 FLIPR EC50.

Consider `Cc1c2c(c3nccn3c1C)CN(C(=O)OC1CN(c3ccnc(C(F)F)c3)C1)C2` [Example 141], for which the EC50 in data set [1] (setting [3]) was 39.3 nM. In data set [2], the AUC(0-inf) turned out to be 8540 ng·h/mL, the Cmax is 3210 ng/mL, the Tmax turned out to be 0.5 h and the MRT inf turned out to be 1.7 h.

For the molecule `Cc1c2c(c3ncnn3c1C)CN(C(=O)CC1CN(c3ccnc(OC4CC4)c3)C1)C2` [Example 188], in data set [1] (setting [3]), the EC50 was found to be 20.6 nM. Moreover, in data set [2], the AUC(0-inf) came out at 3170 ng·h/mL, the concentration peaked (Cmax) at 967 ng/mL, the Tmax is 1 h and the MRT inf worked out at 2.6 h.

For the molecule `Cc1c2c(c3ncnn3c1C)CN(C(=O)OC1CN(c3ccc4nc(C(F)F)cn4n3)C1)C2` [Example 191], the EC50 in data set [1] (setting [3]) was determined as 31 nM. In data set [2], the AUC(0-inf) worked out at 16100 ng·h/mL, the highest concentration (Cmax) was found to be 2840 ng/mL, the Tmax amounted to 2 h and the MRT inf is 3.9 h.

On to `Cc1c2c(c3ccnn3c1C)CN(C(=O)CC1CN(c3ccnc(C(F)(F)F)c3)C1)C2` [Example 76, 1-(4,5-Dimethyl-2,3-dihydro-1H-pyrrolo[4,3-c]pyrazolo[1,5-a]pyridin-2-yl)-2-{1-[2-(trifluoromethyl)pyridin-4-yl]azetidin-3-yl}ethan-1-one], for which, in data set [1] (setting [3]), the EC50 came out at 40.4 nM. Besides, in data set [2], the AUC(0-inf) is 6150 ng·h/mL, the highest level (Cmax) was 1090 ng/mL, the Tmax came out at 2 h and the MRT inf stood at 3.9 h.

For `COc1cc(N2CC(OC(=O)N3Cc4c(C)c(C)n5ncnc5c4C3)C2)ccn1` [Example 182], the EC50 in data set [1] (setting [3]) amounted to 37 nM. Further, in data set [2], the area under the curve AUC(0-inf) was 7050 ng·h/mL, the Cmax turned out to be 1710 ng/mL, the Tmax was found to be 1 h and the MRT inf came to 2.8 h.

In the case of `Cc1c2c(n3ncnc3c1Cl)CN(C(=O)CC1CN(c3ncc(C(F)(F)F)cn3)C1)C2` [Example 317, 1-(4-Chloro-5-methyl-6,8-dihydro-7H-pyrrolo[3,4-e][1,24]triazolo[1,5-a]pyridin-7-yl)-2-(1-(5-(trifluoromethyl)pyrimidin-2-yl)azetidin-3-yl)ethan-1-one], the EC50 in data set [1] (setting [3]) came to 16.9 nM. Further, in data set [2], the AUC(0-inf) came out at 26700 ng·h/mL, the Cmax turned out to be 2140 ng/mL, the Tmax was found to be 4 h and the MRT inf was found to be 11.2 h.

Turning to `CCn1ncc2cc(N3CC(CC(=O)N4Cc5c(C)c(C)n6ncnc6c5C4)C3)ccc21` [Example 307], in data set [1], the EC50 was determined as 17.1 nM. Besides, in data set [2], the AUC(0-inf) was determined as 5300 ng·h/mL, the concentration peaked (Cmax) at 2110 ng/mL, the Tmax came out at 0.75 h and the MRT inf was found to be 2.02 h.

As to `Cc1c2c(c3ncnn3c1C)CN(C(=O)CC1CN(c3ccc4c(cnn4C)c3)C1)C2` [Example 269], in data set [1] (setting [3]), the EC50 was 87.1 nM. Also, in data set [2], the AUC(0-inf) came to 3640 ng·h/mL, the peak level (Cmax) was 1330 ng/mL, the Tmax was 0.83 h and the MRT inf came to 2 h.

In the case of `Cc1c2c(n3ncnc3c1Cl)CN(C(=O)CC1CN(c3ncc(F)cn3)C1)C2` [Example 346, 1-(4-Chloro-5-methyl-6,8-dihydro-7H-pyrrolo[3,4-e][1,2,4]triazolo[1,5-a]pyridin-7-yl)-2-(1-(5-fluoropyrimidin-2-yl)azetidin-3-yl)ethan-1-one], the EC50 in data set [1] (setting [3]) is 32.6 nM. In data set [2], the AUC(0-inf) was found to be 11400 ng·h/mL, the Cmax amounted to 1460 ng/mL, the Tmax worked out at 1 h and the MRT inf came to 5.02 h.

Consider `Cc1c2c(c3ncnn3c1C)CN(C(=O)CC1CN(c3cnc4c(c3)COC4)C1)C2` [Example 270], for which the EC50 in data set [1] (setting [3]) came to 23.2 nM. Also, in data set [2], the AUC(0-inf) worked out at 12000 ng·h/mL, the Cmax was 3500 ng/mL, the Tmax is 0.83 h and the MRT inf came out at 2.5 h.

Turning to `COc1cc(N2CC(CC(=O)N3Cc4c(C)c(C)n5ncnc5c4C3)C2)ccn1` [Example 236], the EC50 in data set [1] (setting [3]) is 49.1 nM. Also, in data set [2], the AUC(0-inf) amounted to 6710 ng·h/mL, the concentration peaked (Cmax) at 1090 ng/mL, the Tmax worked out at 1.5 h and the MRT inf worked out at 4.6 h.

As to `CCOc1ccc(N2CC(CC(=O)N3Cc4c(C)c(C)n5ncnc5c4C3)C2)cn1` [Example 304, 1-(5,6-Dimethyl-7,9-dihydro-8H-pyrrolo[3,4-c][1,2,4]triazolo[1,5-a]pyridin-8-yl)-2-(1-(6-ethoxypyridin-3-yl)azetidin-3-yl)ethan-1-one], the EC50 in data set [1] (setting [3]) turned out to be 26.9 nM. In data set [2], the AUC(0-inf) stood at 4080 ng·h/mL, the Cmax was 2380 ng/mL, the Tmax worked out at 0.5 h and the MRT inf turned out to be 1.32 h.

Turning to `Cc1c2c(c3ncnn3c1C)CN(C(=O)CC1CN(c3ccc4nc(C(F)F)cn4n3)C1)C2` [Example 189], the EC50 in data set [1] (setting [3]) is 13.3 nM. Also, in data set [2], the AUC(0-inf) stood at 3220 ng·h/mL, the Cmax amounted to 1040 ng/mL, the Tmax amounted to 1 h and the MRT inf is 2.6 h.

Take `Cc1cc2ncnn2c2c1CN(C(=O)CC1CN(c3ncc(C(F)(F)F)cn3)C1)C2` [Example 331]: in data set [1], the EC50 stood at 101 nM. Further, in data set [2], the AUC(0-inf) is 10700 ng·h/mL, the concentration peaked (Cmax) at 944 ng/mL, the Tmax stood at 2 h and the MRT inf was 6.8 h.

In the case of `Cc1c2c(c3ncnn3c1C)CN(C(=O)CC1CN(c3ccc(OC4CC4)nc3)C1)C2` [Example 303], the EC50 in data set [1] (setting [3]) stood at 13.8 nM.

For `Cc1c2c(c3ccnn3c1C)CN(C(=O)CC1CN(c3ccnc(OC4CC4)c3)C1)C2` [Example 221], the EC50 in data set [1] (setting [3]) was determined as 94.3 nM.
